Target: 5-hydroxytryptamine receptor 2A (Homo sapiens, UniProt P28223)
Test: Antagonist activity at 5HTR2A (unknown origin) assessed as inhibition of 5-HTR2A

Sequence of 5-hydroxytryptamine receptor 2A (P28223 whole entry): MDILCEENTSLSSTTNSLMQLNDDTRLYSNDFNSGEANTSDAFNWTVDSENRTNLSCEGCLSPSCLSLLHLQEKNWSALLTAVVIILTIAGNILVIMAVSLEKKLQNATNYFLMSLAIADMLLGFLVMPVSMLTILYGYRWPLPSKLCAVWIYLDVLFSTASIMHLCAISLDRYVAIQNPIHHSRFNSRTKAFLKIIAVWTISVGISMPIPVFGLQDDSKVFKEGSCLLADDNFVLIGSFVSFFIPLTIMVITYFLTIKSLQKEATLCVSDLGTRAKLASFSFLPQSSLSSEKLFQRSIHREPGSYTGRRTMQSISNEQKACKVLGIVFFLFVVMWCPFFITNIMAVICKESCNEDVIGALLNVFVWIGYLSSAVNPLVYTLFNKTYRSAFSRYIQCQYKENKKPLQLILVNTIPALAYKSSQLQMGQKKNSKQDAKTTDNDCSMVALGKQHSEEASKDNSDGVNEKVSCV

**Q.** How did the IC50 turn out when `O=C(NCc1ccc(OCC(O)CN2CCC(C3c4ccc(Cl)cc4CCc4cccnc43)CC2)cc1)N(Cc1ccc(F)cc1)C1CCNCC1` (stereo unspecified) was run?
**A.** 820 nM

From ChEMBL document CHEMBL6096690, “Synthesis and Biological Evaluation of Peripheral HTR2A Antagonists for Colorectal Cancer” (J Med Chem, 2025)
